According to US8436027B2, “Azole compounds used as tuberculostatic and leishmanicide agents” (priority 2005, dated 2013):
Where “and” joins values, the source holds several entries; their conditions need not be identical. Equal entries are not always repeated.

Legend:
[1] = test system: Mycobacterium tuberculosis H37Rv (ATCC-27294); assay: MIC by MABA (Microplate Alamar Blue Assay), antimicrobial activity; assay type: cell-based; settings: M. tuberculosis H37Rv (ATCC 27294); for MIC: MABA, 5 days incubation + 24 h Alamar Blue; for Inhibition (%): concentration not given
[2] = test system: promastigote forms of Leishmania amazonensis; assay: Leishmanicide evaluation in vitro, live parasites counted by fluorescence; assay type: cell-based; settings: for leishmanicide activity (inhibition): Table 6; for Percentage of parasitic inhibition: L. amazonensis promastigotes
Method: The evaluation of the Leishmanicide activity of the type I and II 1,2,3-triazole derivatives was made through in vitro essays against promastigote forms of Leishmania amazonensis, and after the incubation with compounds, live parasites are counted by fluorescence, thus obtaining as a result, the percentage of inhibition of the compounds evaluated.
Essays were performed in triplicate using pentamidine as a positive pattern with a 160 μg/mL concentration.
The evaluation of the leishmanicide activity of type I (Formula XII) and II (Formula XIII) imidazole derivatives was performed through in vitro essays against promastigote forms of Leishmania amazonensis, and after the incubation with compounds, live parasites are counted by fluorescence, thus obtaining as a result the inhibition percentage of the evaluated compounds.
Essays were performed in triplicate using pentamidine as a positive pattern with a 160 μg/mL concentration, determining which compounds evaluated inhibited the parasite in lower concentrations and the percentage higher than the pattern. Table 6 lists the results obtained in the leishmanicide evaluation of derivatives 140a 148a 146a, 149a.

[3] = test system: M. tuberculosis; settings: background statement; cited from earlier work

Row | Compound | MIC [1] | other results
1 | Cc1ccc(-n2cc(C=O)nn2)cc1 [114c, 4-carboxaldehyde-1-(4-methylphenyl)-1H-1,2,3-triazole] | 2.5 µg/mL | Inhibition (%) [1]: 100%
2 | N#Cc1ccc(-n2cc(C=O)nn2)cc1 [114i, 4-carboxaldehyde-1-(4-cyanophenyl)-1H-1,2,3-triazole] | 5.0 µg/mL | 
3 | N=C(N)c1ccc(OCCCCCOc2ccc(C(=N)N)cc2)cc1 [pentamidine] |  | leishmanicide activity (inhibition) ([2]; Conc. 5 μ/mL): No inhibition; leishmanicide activity (inhibition) ([2]; Conc. 10 μ/mL): No inhibition; leishmanicide activity (inhibition) ([2]; Conc. 20 μ/mL): No inhibition; leishmanicide activity (inhibition) ([2]; Conc. 80 μ/mL): No inhibition; Percentage of parasitic inhibition ([2]; Concentration 5 μg/mL): No inhibition; Percentage of parasitic inhibition ([2]; Concentration 10 μg/mL): No inhibition; Percentage of parasitic inhibition ([2]; Concentration 20 μg/mL): No inhibition; Percentage of parasitic inhibition ([2]; Concentration 80 μg/mL): No inhibition
4 | COc1ccccc1-n1cc(C=O)nn1 [114l, 4-carboxaldehyde-1-(2-methoxyphenyl)-1H-1,2,3-triazole] | 40.0 µg/mL | Inhibition (%) [1]: 94%
5 | O=[N+]([O-])c1ccc(-n2cc(C(F)F)nn2)cc1 [121j, 1-(4-nitrophenyl)-4-difluoromethyl-1H-1,2,3-triazole] | 40.0 µg/mL | 
6 | FC(F)c1cn(-c2ccc(Cl)cc2)nn1 [121a, 1-(4-chlorophenyl)-4-difluoromethyl-1H-1,2,3-triazole] | 40.0 µg/mL | 
7 | COc1ccc(OC)c(-n2cc(C=O)nn2)c1 [114e, 4-carboxaldehyde-1-(2,5-dimethoxyphenyl)-1H-1,2,3-triazole] | 80.0 µg/mL | Inhibition (%) [1]: 59%
8 | COc1ccc(-n2cc(C=O)nn2)cc1OC [114m, 4-carboxaldehyde 1-(3,4-dimethoxyphenyl)-1H-1,2,3-triazole] | 80.0 µg/mL | 
9 | O=Cc1cn(-c2ccc(Br)cc2)nn1 [114b, 4-carboxaldehyde-1-(4-bromophenyl)-1H-1,2,3-triazole] | 5.0 µg/mL | Inhibition (%) [1]: 100%
10 | Brc1ccc(/N=C/c2cn(-c3ccc(Br)cc3)nn2)cc1 [compound 120, (E)-4-bromo-N-((1-(4-bromophenyl)-1H-1,2,3-triazole-4-il)methylene)benzenamine] | 20 µg/mL | 
11 | N#Cc1cccc(-n2cc(C=O)nn2)c1 [114h, 4-carboxaldehyde-1-(3-cyanophenyl)-1H-1,2,3-triazole] | 20.0 µg/mL | 
12 | O=Cc1cn(-c2cccc(Cl)c2)nn1 [114f, 4-carboxaldehyde-1-(3-chlorophenyl)-1H-1,2,3-triazole] |  | Percentage of parasitic inhibition ([2]; Concentration 20 μg/mL): No inhibition
13 | NNC(=O)c1ccncc1 [INH, isoniazide] |  | minimum inhibitory concentration (MIC) [3]: 0.02 to 0.06 µg/mL
14 | COc1ccc(-n2cc(C=O)nn2)cc1 [114d, 4-carboxaldehyde-1-(4-methoxyphenyl)-1H-1,2,3-triazole] | 10.0 µg/mL | Inhibition (%) [1]: 100%
15 | Clc1ccc(/N=C/c2cn(-c3ccc(Cl)cc3)nn2)cc1 [compound 119, (E)-4-chloride-N-((1-(4-chlorophenyl)-1H-1,2,3-triazole-4-il)methylene)benzenamine] | 40 µg/mL | 
16 | O=Cc1cn(-c2ccc([N+](=O)[O-])cc2)nn1 [114j, 4-carboxaldehyde-1-(4-nitrophenyl)-1H-1,2,3-triazole] | 20.0 µg/mL | 
17 | O=Cc1cn(-c2ccc(Cl)cc2)nn1 [114a, 4-carboxaldehyde-1-(4-chlorophenyl)-1H-1,2,3-triazole] | 5 µg/mL and 5.0 µg/mL | 
18 | O=Cc1cn(-c2cc(Cl)cc(Cl)c2)nn1 [114g, 4-carboxaldehyde-1-(3,5-dichlorophenyl)-1H-1,2,3-triazole] | 2.5 µg/mL | 
